Experimental data taken from patent publication US20260199204A1, “ANTIMICROBIAL COMBINATIONS” (Clariant International Ltd, priority 2022, published 2026).
≈ marks a conversion by molar mass, not a printed value. Like-named read-outs stand apart in the source and are kept apart here.

How the values were obtained:
Format in all cases: cell-based
[1] = system: Penicillium minioluteum/Penicillium purpurogenum ATCC 52427; experiment: MIC agar dilution test, mold; conditions: Penicillium minioluteum/Penicillium purpurogenum (M) ATCC 52427, Sabouraud-4% Dextrose-Agar, pH 5.6
Procedure: (§1) The antimicrobial properties of Velsan Flex, 4-Hydroxyacetophenone and a combination of both against bacteria, yeast and mold were investigated: For testing the inhibition of bacteria, Velsan Flex, 4-Hydroxyacetophenone or a combination of both was diluted in butylpolyglycol and added in different concentrations to liquid Caso-Agar at 50° C. and was buffered to pH 7 (+/−0.2). For testing the inhibition of yeast and mold, Velsan Flex, 4-Hydroxyacetophenone or a combination of both was diluted in butylpolyglycol and added in different concentrations to liquid Sabouraud-4% Dextrose-Agar at 50° C. and was buffered to pH 5.6 (+/−0.2). Each of the solutions was poured into a petri-dish and inoculated with the same amount of bacteria, yeast or mold respectively. The minimum inhibitory concentration (MIC) is the lowest concentration of the respective composition that inhibits the growth of the respective microorganism where the next lowest dilution fails to inhibit the growth of said microorganism.
(§2) In a similar experiment as described above the antimicrobial properties of Velsan SC, 4-Hydroxyacetophenone and a combination of both against bacteria, yeast and mold were investigated.

[2] = system: Aspergillus terreus IMI 45543; experiment: MIC agar dilution test, mold; conditions: Aspergillus terreus (M) IMI 45543, Sabouraud-4% Dextrose-Agar, pH 5.6
Procedure: as §1, §2

[3] = system: Fusarium solani IMI 322444; experiment: MIC agar dilution test, mold; conditions: Fusarium solani (M) IMI 322444, Sabouraud-4% Dextrose-Agar, pH 5.6
Procedure: as §1, §2

[4] = system: Aspergillus brasiliensis DSM 1988; experiment: MIC agar dilution test, mold; conditions: Aspergillus brasiliensis (M) DSM 1988, Sabouraud-4% Dextrose-Agar, pH 5.6
Procedure: as §1, §2

[5] = system: Klebsiella pneumoniae DSM 786; experiment: MIC agar dilution test, bacteria; conditions: Klebsiella pneumoniae (B) DSM 786, Caso-Agar, pH 7
Procedure: as §1, §2

[6] = system: Staphylococcus aureus DSM 799; experiment: MIC agar dilution test, bacteria; conditions: Staphylococcus aureus (B) DSM 799, Caso-Agar, pH 7
Procedure: as §1, §2

[7] = system: Burkholderia cepacia DSM 7288; experiment: MIC agar dilution test, bacteria; conditions: Burkholderia cepacia (B) DSM 7288, Caso-Agar, pH 7
[8] = system: Candida albicans DSM 1386; experiment: MIC agar dilution test, yeast; conditions: Candida albicans (Y) DSM 1386, Sabouraud-4% Dextrose-Agar, pH 5.6
Procedure: as §1, §2

[9] = system: Saccharomyces cerevisiae DSM 70449; experiment: MIC agar dilution test, yeast; conditions: Saccharomyces cerevisiae (Y) DSM 70449, Sabouraud-4% Dextrose-Agar, pH 5.6
Procedure: as §1, §2

[10] = system: all test organisms (P.a., S.a., E.c., C.a., A.b.); experiment: Challenge test in O/W-cream gel, overall result; set-up: key to Challenge test criteria for all test organisms: An A-criteria is related to an excellent protection of a formulation; B-criteria is needed to show sufficient protection but additional risk eliminating measures related to packaging and raw material quality need to be applied; With an F-criteria for any of the organism tested the whole challenge test is failed and the preservation/protection of the formulation is not sufficient; conditions: pH 7
Source text: (§3) Following examples show challenge test results that were done according to EUROPEAN PHARMACOPOEIA 10TH EDITION. Chapter 5.1.3. As representative microorganisms the following test germs were used: Pseudomonas aeruginosa (gram-negative organism, short “P.a.”), Staphylococcus aureus (gram-positive organism, short “S.a.”), Escherichia coli (gram negative organism, short “E.c.”), Candida albicans (yeast, short “C.a.”) and Aspergillus brasiliensis (mold, short “A.b.”). The A criteria express the recommended efficacy to be achieved. In justified cases where the A criteria cannot be attained, for example for reasons of an increased risk of adverse reactions, the B criteria must be satisfied. An A-criteria is related to an excellent protection of a formulation, B-criteria is needed to show sufficient protection but additional risk eliminating measures related to packaging and raw material quality need to be applied. With an F-criteria for any of the organism tested the whole challenge test is failed and the preservation/protection of the formulation is not sufficient. As a reference an unpreserved sample of the respective formulation was tested as well. As a test system a difficult to preserve formulation was used: Leave-on: O/W-Cream Gel [table]

[11] = system: Staphylococcus aureus (S.a.); experiment: Challenge test (European Pharmacopoeia 10th Edition, 5.1.3) in O/W-cream gel; set-up: key: An A-criteria is related to an excellent protection of a formulation; B-criteria is needed to show sufficient protection but additional risk eliminating measures related to packaging and raw material quality need to be applied; With an F-criteria for any of the organism tested the whole challenge test is failed and the preservation/protection of the formulation is not sufficient; conditions: pH 7
Source text: as §3

[12] = system: Pseudomonas aeruginosa (P.a.); experiment: as above; set-up: key: An A-criteria is related to an excellent protection of a formulation; B-criteria is needed to show sufficient protection but additional risk eliminating measures related to packaging and raw material quality need to be applied; With an F-criteria for any of the organism tested the whole challenge test is failed and the preservation/protection of the formulation is not sufficient; conditions: pH 7
Source text: as §3

[13] = system: Aspergillus brasiliensis (A.b.); experiment: as above; set-up: key: An A-criteria is related to an excellent protection of a formulation; B-criteria is needed to show sufficient protection but additional risk eliminating measures related to packaging and raw material quality need to be applied; With an F-criteria for any of the organism tested the whole challenge test is failed and the preservation/protection of the formulation is not sufficient; conditions: pH 7
Source text: as §3

Candida albicans (C.a.) = experiment: as above; set-up: key: An A-criteria is related to an excellent protection of a formulation; B-criteria is needed to show sufficient protection but additional risk eliminating measures related to packaging and raw material quality need to be applied; With an F-criteria for any of the organism tested the whole challenge test is failed and the preservation/protection of the formulation is not sufficient; conditions: pH 7
Source text: as §3

Escherichia coli (E.c.) = experiment: as above; set-up: key: An A-criteria is related to an excellent protection of a formulation; B-criteria is needed to show sufficient protection but additional risk eliminating measures related to packaging and raw material quality need to be applied; With an F-criteria for any of the organism tested the whole challenge test is failed and the preservation/protection of the formulation is not sufficient
Source text: as §3

[14] = system: Candida parapsilosis DSM 5784; experiment: MIC agar dilution test, yeast; conditions: Lodderomyces parapsilosis, DSM5784; Candida parapsilosis (Y) DSM 5784; Sabouraud-4% Dextrose-Agar, pH 5.6
Procedure: as §1, with “microorganism. The experiments were carried out in scientifically fair conditions so that a proper comparison could be made and conclusions drawn.” for “microorganism.”

Compound: Sorbitan caprylate [90% Velsan SC solution]
- MIC [1]: 1500 ppm
- MIC [2]: 1500 ppm
- MIC [3]: 1500 ppm
- MIC [4]: 4000 ppm
- MIC [5]: 2000 ppm
- MIC [6]: 750 ppm
- MIC [7]: 6000 ppm
- MIC [8]: 1500 ppm
- MIC [9]: 3000 ppm

Compound: Sorbitan caprylate [Velsan SC]
- Ability to preserve the formulation ([10]; alone, entries 8-11 (0.5%; Velsan CGE 0.5% and 0.25%)): not sufficient to preserve the formulation
- Challenge test result S.a. ([11]; concentration 0.5%): B
- Challenge test result P.a. ([12]; concentration 0.5%): F
- Challenge test result A.b. ([13]; concentration 0.5%): B
- Challenge test result C.a. (Candida albicans (C.a.); concentration 0.5%): F
- Challenge test result E.c. (Escherichia coli (E.c.); concentration 0.5%, pH 7): F

Compound: CC(=O)c1ccc(O)cc1 [4-Hydroxyacetophenone]
- Challenge test criteria for all test organisms ([10]; 0.25% as single preservative (entry 5)): F
- Ability to preserve the formulation ([10]; use level 0.5%, alone (entry 6)): not sufficient to preserve the formulation
- Challenge test result S.a. ([11]; concentration 0.25%): F
- Challenge test result S.a. ([11]; concentration 0.5%): B
- Challenge test result P.a. ([12]; concentration 0.25%): F
- Challenge test result P.a. ([12]; concentration 0.5%): A
- Challenge test result A.b. ([13]; concentration 0.25%): F
- Challenge test result A.b. ([13]; concentration 0.5%): A
- Challenge test result C.a. (Candida albicans (C.a.); concentration 0.25%): F
- Challenge test result C.a. (Candida albicans (C.a.); concentration 0.5%): A
- Challenge test result E.c. (Escherichia coli (E.c.); concentration 0.25%, pH 7): F
- Challenge test result E.c. (Escherichia coli (E.c.); concentration 0.5%, pH 7): F
- Challenge test result E.c. (Escherichia coli (E.c.); concentration 0.5%, pH 7, listed as Hydroxyacetophenone): fails

Compound: CC(=O)c1ccc(O)cc1 [10% Hydroxyacetophenone solution, 4-Hydroxyacetophenone]
- MIC ([1]; Talaromyces minioluteus, ATCC52427, read-out: MIC): 6000 µg/mL
- MIC ([2]; IMI45543, read-out: MIC): 6000 µg/mL
- MIC ([3]; IMI322444, read-out: MIC): 3000 µg/mL
- MIC ([4]; DSM1988, read-out: MIC): 8000 µg/mL
- MIC ([5]; DSM786, read-out: MIC): 8000 µg/mL
- MIC ([6]; DSM799, read-out: MIC): > 10000 µg/mL
- MIC ([7]; DSM7288, read-out: MIC): 4000 µg/mL (≈ 29.4 mM)
- MIC ([8]; DSM1386, read-out: MIC): 10000 µg/mL
- MIC ([9]; DSM70449, read-out: MIC): 8000 µg/mL
- MIC [14]: > 10000 µg/mL
